Data from PubChem BioAssay (NCI).
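Five concentrations, 48 hours, 96-well plates. TGI is the concentration that stops growth completely.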

Experiments:
Experiment in all cases: NCI-60 cell line screen, 48 h
OVCAR-5 ovarian = system: OVCAR-5 ovarian
NCI-H226 lung = system: NCI-H226 lung
COLO 205 colon = system: COLO 205 colon
BT-549 breast = system: BT-549 breast
SF-295 CNS = system: SF-295 CNS
CAKI-1 renal = system: CAKI-1 renal
ACHN renal = system: ACHN renal
HT29 colon = system: HT29 colon
HCT-116 colon = system: HCT-116 colon
IGROV1 ovarian = system: IGROV1 ovarian
SK-MEL-2 melanoma = system: SK-MEL-2 melanoma
UACC-257 melanoma = system: UACC-257 melanoma
SW-620 colon = system: SW-620 colon
K-562 leukemia = system: K-562 leukemia
786-0 renal = system: 786-0 renal
HCT-15 colon = system: HCT-15 colon
U251 CNS = system: U251 CNS
PC-3 prostate = system: PC-3 prostate
NCI-H460 lung = system: NCI-H460 lung
OVCAR-4 ovarian = system: OVCAR-4 ovarian
HOP-92 NSCLC = system: HOP-92 NSCLC
NCI-H522 lung = system: NCI-H522 lung
NCI-H23 lung = system: NCI-H23 lung
SK-OV-3 ovarian = system: SK-OV-3 ovarian
A498 renal = system: A498 renal
UO-31 renal = system: UO-31 renal
HS 578T breast = system: HS 578T breast
TK-10 renal = system: TK-10 renal
HOP-62 NSCLC = system: HOP-62 NSCLC
MCF7 breast = system: MCF7 breast
A549 NSCLC = system: A549 NSCLC
MDA-N = system: MDA-N
SN12C renal = system: SN12C renal
DU-145 prostate = system: DU-145 prostate
SF-539 CNS = system: SF-539 CNS
HCC-2998 colon = system: HCC-2998 colon
RPMI-8226 leukemia = system: RPMI-8226 leukemia
UACC-62 melanoma = system: UACC-62 melanoma
MDA-MB-435 = system: MDA-MB-435
LOX IMVI melanoma = system: LOX IMVI melanoma
MALME-3M melanoma = system: MALME-3M melanoma
OVCAR-8 ovarian = system: OVCAR-8 ovarian
T-47D breast = system: T-47D breast
M14 melanoma = system: M14 melanoma
SF-268 CNS = system: SF-268 CNS
SNB-19 CNS = system: SNB-19 CNS
OVCAR-3 ovarian = system: OVCAR-3 ovarian
MDA-MB-231 breast = system: MDA-MB-231 breast
NCI/ADR-RES ovarian = system: NCI/ADR-RES ovarian
RXF 393 renal = system: RXF 393 renal
SK-MEL-28 melanoma = system: SK-MEL-28 melanoma
SK-MEL-5 melanoma = system: SK-MEL-5 melanoma
SNB-75 CNS = system: SNB-75 CNS
KM12 colon = system: KM12 colon

CN(C)CCCN1C(=O)N(CCCN(C)C)c2c3cc(O)ccc3nc3c([N+](=O)[O-])ccc1c23
TGI (OVCAR-5 ovarian): > 100 µM
TGI (NCI-H226 lung): 61.7 µM
TGI (COLO 205 colon): 27.5 µM
TGI (BT-549 breast): 33.7 µM
TGI (SF-295 CNS): > 100 µM
TGI (CAKI-1 renal): 78.2 µM
TGI (ACHN renal): 62.6 µM
TGI (HT29 colon): 27.2 µM
TGI (HCT-116 colon): 38.2 µM
TGI (IGROV1 ovarian): 21.3 µM
TGI (SK-MEL-2 melanoma): 29.8 µM
TGI (UACC-257 melanoma): > 100 µM
TGI (SW-620 colon): 53.2 µM
TGI (K-562 leukemia): 23.7 µM
TGI (786-0 renal): 27.2 µM
TGI (HCT-15 colon): > 100 µM
TGI (U251 CNS): 30.2 µM
TGI (PC-3 prostate): 24 µM
TGI (NCI-H460 lung): 70.4 µM
TGI (OVCAR-4 ovarian): 17.8 µM
TGI (HOP-92 NSCLC): 36.7 µM
TGI (NCI-H522 lung): 20.5 µM
TGI (NCI-H23 lung): 48 µM
TGI (SK-OV-3 ovarian): > 100 µM
TGI (A498 renal): 40.3 µM
TGI (UO-31 renal): 63.6 µM
TGI (HS 578T breast): 60 µM
TGI (TK-10 renal): > 100 µM
TGI (HOP-62 NSCLC): 52.7 µM
TGI (MCF7 breast): 40.4 µM
TGI (A549 NSCLC): 39.6 µM
TGI (MDA-N): > 100 µM
TGI (SN12C renal): 49.1 µM
TGI (DU-145 prostate): 64 µM
TGI (SF-539 CNS): 35.5 µM
TGI (HCC-2998 colon): 26.8 µM
TGI (RPMI-8226 leukemia): 63.3 µM
TGI (UACC-62 melanoma): 27.3 µM
TGI (MDA-MB-435): 36.2 µM
TGI (LOX IMVI melanoma): 26.6 µM
TGI (MALME-3M melanoma): 33.9 µM
TGI (OVCAR-8 ovarian): 37.2 µM
TGI (T-47D breast): 80.2 µM
TGI (M14 melanoma): 79.1 µM
TGI (SF-268 CNS): 26.3 µM
TGI (SNB-19 CNS): 23.8 µM
TGI (OVCAR-3 ovarian): 67.6 µM
TGI (MDA-MB-231 breast): 28.3 µM
TGI (NCI/ADR-RES ovarian): > 100 µM
TGI (RXF 393 renal): 25.1 µM
TGI (SK-MEL-28 melanoma): > 100 µM
TGI (SK-MEL-5 melanoma): 30.4 µM
TGI (SNB-75 CNS): > 100 µM
TGI (KM12 colon): 29.8 µM
